In general, inhibition refers to the drop in the measured response relative to a control, in per cent.

For the experiment, the system named is Pseudomonas aeruginosa. Kind of experiment: Antibacterial activity against Pseudomonas aeruginosa PAO1 assessed as inhibition of biofilm formation at 10 ug/ml after 24 hrs. Format: functional. To be noted: PAO1, 24 h.
With `C[C@H]1[C@H](C)CC[C@]2(C(=O)O)CC[C@]3(C)C(=CC[C@@H]4[C@@]5(C)C[C@@H](O)[C@H](OC(=O)/C=C\c6ccc(O)cc6)C(C)(C)[C@@H]5CC[C@]43C)[C@H]12`, the inhibition at 10 µg/mL amounted to 32%.

Consider `COc1cc(/C=C/C(=O)O[C@H]2[C@H](O)C[C@]3(C)[C@H]4CC=C5[C@@H]6[C@@H](C)[C@H](C)CC[C@]6(C(=O)O)CC[C@@]5(C)[C@]4(C)CC[C@H]3C2(C)C)ccc1O`, for which the inhibition at 10 µg/mL was found to be 48%.

Consider `C[C@@H]1[C@H]2C3=CC[C@@H]4[C@@]5(C)CC[C@H](OC(=O)/C=C\c6ccc(O)cc6)C(C)(C)[C@@H]5CC[C@@]4(C)[C@]3(C)CC[C@@]2(C(=O)O)CC[C@]1(C)O`, for which the inhibition at 10 µg/mL was determined as 62%.

For the compound `C[C@H]1[C@H](C)CC[C@]2(C(=O)O)CC[C@]3(C)C(=CC[C@@H]4[C@@]5(C)C[C@@H](O)[C@H](OC(=O)/C=C/c6ccc(O)cc6)C(C)(C)[C@@H]5CC[C@]43C)[C@H]12`, the inhibition at 10 µg/mL is 35%.

On to `C[C@H]1[C@H](C)CC[C@]2(C(=O)O)CC[C@]3(C)C(=CC[C@@H]4[C@@]5(C)CC[C@H](O)C(C)(C)[C@@H]5CC[C@]43C)[C@H]12` [URSOLIC ACID], for which the inhibition at 10 µg/mL came to 35%.

The values above are taken from ChEMBL document CHEMBL1157230, “Bacterial biofilm inhibitors from Diospyros dendo” (2006).
